# Earlier results in patent EP3085364A1, “PHARMACEUTICAL COMBINED PREPARATION CONTAINING HMG-COA REDUCTASE INHIBITOR AND CHOLESTEROL ABSORPTION INHIBITOR” (Alvogen Korea Co., Ltd., priority 2013, dated 2015).
# Where two headings read alike, the source gives them in different places.
# Tests used:
# [1] = room temperature
stability [1],"solubility in organic solvents (ethanol, methanol, or acetone)",solubility in water,"solubility in organic solvents (N,N-dimethylformamide, acetone, or acetonitrile)",Compound
stable,freely to very soluble,practically insoluble,,"O=C1[C@H](CC[C@H](O)c2ccc(F)cc2)[C@@H](c2ccc(O)cc2)N1c1ccc(F)cc1 [Ezetimibe, 1-(4-fluorophenyl)-(3R)-[3-(4-fluorophenyl)-(3S)-hydroxypropyl]-(4S)-(4-hydroxyphenyl)-2-azetidinone]"
,,sparingly soluble,soluble,"CC(C)c1nc(N(C)S(C)(=O)=O)nc(-c2ccc(F)cc2)c1/C=C/[C@@H](O)C[C@@H](O)CC(=O)O [Rosuvastatin calcium, (E)-7-[4-(4-fluorophenyl)-6-isopropyl-2-[methyl(methylsulfonyl)amino]pyrimidin-5-yl]-(3R,5S)-3,5-dihydroxyhept-6-enic acid]"
